The values below come from the supplement of paper PMC10883282.

± gives the standard deviation of the averaged measurements.

The assay relates to MES-SA. In words: relative viability vs DMSO control (72 h) (fraction); higher = more viable cells. A digest of the protocol: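 After seeding at densities set for 80–90% confluence in 384-well plates, sarcoma cell lines waited 24 h before 2.5 µl of serially diluted compound was added. Source plates held 10 mM down to 0.0002 mM. Plates were incubated 72 h at 37 °C with 5% CO2, with 0.1% DMSO vehicle and a 5 µM positive control, and relative viability was taken from ATPLite as percent growth averaged over up to triplicate wells, with 1 set as full and 0 as none.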

As for `C=CC(=O)Nc1cccc(Oc2nc(Nc3ccc(N4CCN(C)CC4)cc3)nc3ccsc23)c1` [Olmutinib], the relative viability by setting is: (0.00017 µM) 0.931 ± 0.038; (0.00051 µM) 0.964 ± 0.027; (0.00152 µM) 0.916 ± 0.037; (0.00457 µM) 0.937 ± 0.055; (0.01372 µM) 0.918 ± 0.036; (0.04115 µM) 0.955 ± 0.045. In addition, the relative viability came out at 0.968 ± 0.035 (0.1235 µM); 0.954 ± 0.012 (0.3704 µM); 0.9273 ± 0.0055 (1.111 µM); 0.751 ± 0.029 (3.333 µM); 0.448 ± 0.025 (10 µM).
For `CNC(=O)c1cc(Oc2ccc(NC(=O)Nc3ccc(Cl)c(C(F)(F)F)c3)c(F)c2)ccn1` [Regorafenib], the relative viability by setting is: (0.00017 µM) 0.973 ± 0.026; (0.00051 µM) 0.9876 ± 0.0026; (0.00152 µM) 0.972 ± 0.037; (0.00457 µM) 0.955 ± 0.036; (0.01372 µM) 0.968 ± 0.022; (0.04115 µM) 0.96 ± 0.03. The compound also registered a relative viability (0.1235 µM) of 0.997 ± 0.067; a relative viability (0.3704 µM) of 0.965 ± 0.045; a relative viability (1.111 µM) of 0.923 ± 0.064; a relative viability (3.333 µM) of 0.735 ± 0.038; a relative viability (10 µM) of 0.246 ± 0.01.
Take `COc1cc2c(cc1O)CCN[C@]21CS[C@@H]2c3c(OC(C)=O)c(C)c4c(c3[C@H](COC1=O)N1[C@@H]2[C@H]2c3c(cc(C)c(OC)c3O)C[C@@H]([C@@H]1O)N2C)OCO4` [Trabectedin]: the relative viability runs as follows: (2 pM) 0.939 ± 0.021; (5 pM) 0.903 ± 0.022; (15 pM) 0.886 ± 0.036; (50 pM) 0.819 ± 0.039; (0.00014 µM) 0.667 ± 0.049; (0.00041 µM) 0.471 ± 0.025. For the same compound, the relative viability is, setting by setting: (0.0012 µM) 0.0389 ± 0.024; (0.0037 µM) 0.0573 ± 0.00061; (0.011 µM) 0.0496 ± 0.003; (200 fM) 0.997 ± 0.015; (600 fM) 0.963 ± 0.015.
